Reference: US20020006954A1, “Desmethyl tocopherols for preventing or slowing degenerative neurological diseases” (Oklahoma Medical Research Foundation, priority 2000, published 2002)
Like-named read-outs stand apart in the source and are kept apart here.

Assays:
[1] = cited from earlier work; for increase of own plasma tocopherol level above baseline: rats, 100 mg/kg/day for 10 days
[2] = test system: α-ketoglutarate dehydrogenase (αKGDH); assay: Protection of αKGDH activity in rat brain mitochondria exposed to SIN-1; assay type: biochemical
Procedure: FIG. 5 is a graph showing rat brain mitochondria were exposed to 0.4 mM SIN-1 for 1 H after addition of tocopherol. (.) α-toc; (▪) γ-toc. The scale bars labeled [α]norm and [γ]norm indicate the normal endogenous quantities of α-toc and γ-toc, respectively, in human brain.
Mitochondria were isolated from adult rat brain then sonicated briefly in the presence of either αT or γT, or an ethanol vehicle. Mitochondria were then exposed to SIN-1, which generates NO and superoxide simultaneously at a known rate (7). Combination of NO and superoxide yields ONOO^− in situ (discussed above). Enzyme activity is destroyed by peroxynitrite and superoxide but not by NO (19).

[3] = test system: Primary cortical rat neurons; assay: Neurotoxicity assay, cortical neurons exposed to SNP, LDH release; assay type: cell-based; settings: SNP 10 μM, 24 hours
Procedure: Cerebrocortical neurons were exposed to the indicated concentration of SNP for 24 hours. Viability was assessed by release of lactate dehydrogenase (LDH) by nonviable cells.
γ-Tocopherol was further assessed for protective ability in a neurotoxicity assay where nitrative stress was imposed. […] Media was removed and cells were then washed and medium was replaced with fresh, tocopherol-free medium.

occlusive thrombus = settings: rats, cited from earlier work; for delay of time to occlusive thrombus: 29% FeCl3 patch on abdominal aorta
[4] = cited from earlier work; for effect of αT supplementation on systemic γT: oral supplementation
Alzheimer's Disease = settings: one clinical study; cited from earlier work
platelet aggregation = settings: rats, 100 mg/kg/day for 10 days; cited from earlier work
C3H/10T½ fibroblasts = settings: methylcholanthrene-treated C3H/10T½ fibroblasts; cited from earlier work
superoxide dismutase = settings: rats; cited from earlier work
systemic lipid oxidation = settings: rats fed tocopherol two weeks after iron-dextran; cited from earlier work
[5] = liposomes exposed to ONOO−; cited from earlier work
endothelial cells = settings: cited from earlier work
[6] = rat brain mitochondria, 400 μM SIN-1, 1 h

For Cc1c(C)c2c(c(C)c1O)CC[C@@](C)(CCC[C@H](C)CCC[C@H](C)CCCC(C)C)O2 [αT, alpha tocopherol, reference compound], the “increase of own plasma tocopherol level above baseline” value [1] is listed as 2 fold, the “concentration offering as much protection as 50-100 nM of γT” value ([2]; 400 μM SIN-1) is listed as 1 to 10 µM and the “tocopherol concentration of maximal protection of αKGDH” value [2, 6] is listed as “about 1 μM”. The “protection of neurons from SNP toxicity (LDH release)” value ([3]; 10 μM tocopherol) was “ineffective”, the “delay of time to occlusive thrombus” value (occlusive thrombus; 100 mg/kg/day for 10 days) was 25% and the “absorption by the gut” value ([4]; in vivo) was “absorbed equally well”. The “effect of αT supplementation on systemic γT” value [4] was “decreases systemic γT concentration”, the “effect of αT supplementation on systemic γT” value ([4]; listed as α-tocopherol) was “depletes the human body of γ-tocopherol” and the “effect on progression of Alzheimer's Disease” value (Alzheimer's Disease) was “decreases the progression of Alzheimer's Disease (AD) marginally”.
For Cc1c(O)cc2c(c1C)O[C@](C)(CCC[C@H](C)CCC[C@H](C)CCCC(C)C)CC2 [γT, gamma tocopherol], the “increase of own plasma tocopherol level above baseline” value [1] is listed as 6 fold, the “plasma γT concentration as percent of the γT concentration (so in the source)” value ([1]; γT supplemented rats) is listed as at most 10% and the “inhibition of platelet aggregation kinetics relative to αT supplementation” value (platelet aggregation) is listed as 2 fold. The “concentration offering as much protection as 1-10 μM of αT” value ([2]; 400 μM SIN-1) was 50 to 100 nM, the “protection of αKGDH in side-by-side comparison” value ([2]; at all concentrations tested) was “more protective than αT” and the “protection of αKGDH relative to the corresponding concentration of αT” value ([2]; concentrations near 100 nM, 400 μM SIN-1) was “approximately 5 times”. For the same compound, the “maximal protection of αKGDH relative to maximal protection by αT” value [2, 6] was “approximately 2.5 times”, the “tocopherol concentration of maximal protection of αKGDH” value [2, 6] was “about 1 μM” and the “inhibition of neoplastic transformation relative to αT” value (C3H/10T½ fibroblasts) was 4 fold. The “superoxide dismutase activity in aortas compared to the αT treated group” value (superoxide dismutase) was “increased significantly”, the “protection of neurons from SNP toxicity (LDH release)” value ([3]; 200 nM tocopherol) was “significantly protected” and the “effectiveness at inhibiting systemic lipid oxidation relative to αT” value (systemic lipid oxidation) was “approximately 35%”. The “inhibition of lipid hydroperoxide formation relative to αT” value [5] was “twice as effective”, the “delay of time to occlusive thrombus” value (occlusive thrombus; 100 mg/kg/day for 10 days) was 65% and the “inhibition of iron-induced lipid peroxidation and occlusive thrombus” value (occlusive thrombus; 100 mg/kg/day for 10 days) was “significantly more effective than αT supplementation”. The “potency relative to αT at inhibition of thrombogenic correlates, referred to plasma tocopherol concentrations” value (occlusive thrombus) was 20-30 times, the “incorporation into endothelial cells” value (endothelial cells) was “more rapidly than is αT” and the “absorption by the gut” value ([4]; in vivo) was “absorbed equally well”. The packaging into lipoproteins ([4]; in vivo) was “less effectively than αT”.
With Nc1c[n+](N2CCOCC2)no1 [SIN-1, reference compound] the “decrease of αKGDH activity” value ([2]; 400 μM SIN-1, one hour, rat brain mitochondria) was “approximately 50%”.
